Data reported in patent publication US6689767B2, “Triterpenes having antibacterial activity” (Regents of the University of Minnesota, priority 2000, dated 2004).
Converted amounts (≈) assume the structure as drawn.

Tests used:
Escherichia coli = assay: Kirby-Bauer disk diffusion growth inhibition, Escherichia coli; format: cell-based; conditions: for zone of inhibition at 0.125 µg/mL: Escherichia coli, read-out: Zone of inhibition Escherichia coli; for zone of inhibition at 0.125 µg/mL / Zone of inhibition Escherichia coli: 100 μl on 10 mm disk, 18 hours 37° C.; for Active against: Table 1 summary, E. coli; for effectiveness against E. Coli: Tables 1a and 1b
In short: (§1)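 Bacteria grown 18 h at 37 °C in nutrient broth, 0.5 ml swabbed onto Mueller-Hinton agar; 10 mm disks loaded with 100 μl compound in DMSO or water (additional compounds at 10 mg/ml in DMSO). Inhibition zones measured after 18 h at 37 °C, in triplicate.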

Staphylococcus aureus = assay: Kirby-Bauer disk diffusion growth inhibition, Staphylococcus aureus; format: cell-based; conditions: for zone of inhibition at 0.125 µg/mL: Staphylococcus aureus, read-out: Zone of inhibition Staphylococcus aureus; for zone of inhibition at 0.125 µg/mL / Zone of inhibition Staphylococcus aureus: 100 μl on 10 mm disk, 18 hours 37° C.; for Active against: Table 1 summary, S. aureus; for effectiveness against S. aureus: Tables 1a and 1b
In short: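 S. aureus broth culture (18 h, 37 °C) spread on Mueller-Hinton agar; 10 mm disks carrying 100 μl compound solution in DMSO or water, one set at 10 mg/ml in DMSO. Inhibition zones measured after 18 h at 37 °C, in triplicate.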

Bacillus subtilis = assay: Kirby-Bauer disk diffusion growth inhibition, Bacillus subtilis; format: cell-based; conditions: 100 μl on 10 mm disk, 18 hours 37° C.; for zone of inhibition at 0.125 µg/mL: Bacillus subtilis, read-out: Zone of inhibition Bacillus subtilis
In short: as §1

E. Coli = assay: Minimum inhibitory concentration in tryptic soy broth, E. coli; format: cell-based, Escherichia coli; conditions: 24 hours 37° C., turbidity
Protocol: (§2) Sterile tryptic soy broth was prepared according to the manufacturer's instructions (Difco Lab, Michigan). To each tube containing 7 ml of broth, test compounds dissolved in DMSO were added at different concentrations in triplicate. The tubes were incubated for 24 hours at 37° C. and then turbidity was measured using a […]. The colorimeter was calibrated with sterile broth. The MIC was the lowest concentration that could prevent an increase in turbidity.

bacteria = assay: Summary statements over the antibacterial assays above; format: cell-based; conditions: summary list
[1] = test system: methicillin-resistant Staphylococcus aureus; assay: Growth inhibition of methicillin-resistant Staphylococcus aureus; format: cell-based
Protocol: The compounds disclosed herein were tested for growth inhibition against four strains of bacteria: Escherichia coli, Staphylococcus aureus, methicillin-resistant Staphylococcus aureus, and Bacillus subtilis. […] They represent […]. E. coli is a gram-negative, non-spore forming, rod-shaped, opportunistic pathogen that resides in the human digestive tract. S. aureus is a gram positive coccus, is usually found morphologically as a […], and is an opportunistic human pathogen, often residing on or in the skin. B. subtilis is a gram positive spore-forming rod. Its native environment is the soil. The chemicals were tested for growth-inhibition of the bacteria by the Kirby-Bauer method. See, e.g., Microbiology, third edition; Lansing M. Prescott, John P. Harley, and Donald A. Klein; Wm. C. Brown Publishers.
Mueller-Hinton agar (Difco Lab, Michigan) was prepared according to the manufacturer's directions, and 20 ml was dispensed in each sterile petri dish. Sterile nutrient broth (Difco Lab, Michigan) was also prepared according to the manufacturer's directions.
Bacteria were grown in liquid nutrient broth for 18 hours at 37° C. until they were turbid.
An aliquot of 0.5 ml of cultured bacteria was aseptically transferred to the surface of a Mueller-Hinton agar plat, and spread using a cotton-tipped swab. […]
The zones of inhibition were measured after 18 hours growth at 37° C. […]

[2] = test system: methicillin resistant S. aureus; assay: Minimum inhibitory concentration in tryptic soy broth, methicillin resistant S. aureus; format: cell-based, Staphylococcus aureus; conditions: 24 hours 37° C., turbidity
Protocol: as §2

S. aureus = assay: Minimum inhibitory concentration in tryptic soy broth, S. aureus; format: cell-based, Staphylococcus aureus; conditions: 24 hours 37° C., turbidity
Protocol: as §2

Structure (SMILES) | zone of inhibition at 0.125 µg/mL (Escherichia coli; 125 ng/ml in water) [mm] | zone of inhibition at 0.125 µg/mL (Staphylococcus aureus; 125 ng/ml in water) [mm] | zone of inhibition at 0.125 µg/mL (Bacillus subtilis; 125 ng/ml in water) [mm] | Zone of inhibition Escherichia coli (Escherichia coli; 10 mg/ml in DMSO) [mm] | Active against (Escherichia coli) | effectiveness against E. Coli (Escherichia coli) | Zone of inhibition Staphylococcus aureus (Staphylococcus aureus; 10 mg/ml in DMSO) [mm] | active against at least one strain of bacteria in the assays above (bacteria) | Zone of inhibition Bacillus subtilis (Bacillus subtilis; 10 mg/ml in DMSO) [mm] | further results
CC1(C)CCC23CC[C@@]4(C)C(CCC5[C@@]6(C)C=C(O)C(=O)C(C)(C)C6CC[C@]54C)C2C1OC3=O (stereo partly drawn) [Allobetulon-lactone-1-ene-2-ol, allobetulon lactone-1-ene-2-ol] | 0 | 0 | 0 |  |  |  |  |  |  | melting point: 238.8 to 243.6 °C
C=C(C)[C@@H]1CC[C@]2(COC(=O)COCC(=O)O)CC[C@]3(C)[C@H](CC[C@@H]4[C@@]5(C)CC[C@H](OC(=O)COCC(=O)O)C(C)(C)[C@@H]5CC[C@]43C)[C@@H]12 [Betulin 3,28-didiglycolate, Betulin-3,28-didiglycolate] |  |  |  | 0 | E. coli | effective | 0 | active against at least one strain of bacteria | 0 | MIC (E. Coli): 0.282 µM (≈ 0.19 µg/mL)
C=C(C)[C@@H]1CC[C@]2(COC(=O)CCCC(=O)O)CC[C@]3(C)[C@H](CC[C@@H]4[C@@]5(C)CC[C@H](OC(=O)CCCC(=O)O)C(C)(C)[C@@H]5CC[C@]43C)[C@@H]12 [Betulin 3,28-diglutarate, Betulin-3,28-diglutarate] |  |  |  | 0 | E. coli | effective | 0 | active against at least one strain of bacteria | 0 | Zone of inhibition Escherichia coli (Escherichia coli; 125 ng/ml in water): 12.0 mm; Zone of inhibition Staphylococcus aureus (Staphylococcus aureus; 125 ng/ml in water): 0 mm; MIC (E. Coli): 0.282 µM (≈ 0.189 µg/mL); Zone of inhibition Bacillus subtilis (Bacillus subtilis; 125 ng/ml in water): 0 mm
C=C(C)[C@@H]1CC[C@]2(COC(=O)/C=C\C(=O)O)CC[C@]3(C)[C@H](CC[C@@H]4[C@@]5(C)CC[C@H](OC(=O)/C=C\C(=O)O)C(C)(C)[C@@H]5CC[C@]43C)[C@@H]12 [Betulin 3,28-dimaleate, Betulin-3,28-dimaleate] |  |  |  | 0 |  |  | 11.0 |  | 0 | Active against (Staphylococcus aureus): S. aureus,; effectiveness against S. aureus (Staphylococcus aureus): effective; amount applied to the disk that inhibited S. aureus (Staphylococcus aureus; disk diffusion assay, laboratory strain (not methicillin resistant)): 56 ng; effectiveness against S. aureus compared with streptomycin (Staphylococcus aureus; laboratory strain (not methicillin resistant)): more effective; effectiveness against methicillin resistant S. aureus [1]: effective; Active against ([1]; Table 1 summary, S. aureus methicillin resistant): S. aureus methicillin; MIC [2]: 0.282 µM (≈ 0.18 µg/mL); minimum inhibitory concentration (S. aureus): 2.3 µM (≈ 1.47 µg/mL)
C=C(C)C1CCC2(COP(=O)(O)O)CC[C@@]3(C)C(CCC4[C@@]5(C)CCC(OP(=O)(O)O)C(C)(C)C5CC[C@]43C)C12 (stereo partly drawn) [Betulin 3,28-diphosphate, Betulin-3,28-diphosphate] | 11 | 0 | 0 |  | E. coli | effective |  | active against at least one strain of bacteria |  | MIC (E. Coli; Escherichia coli): 0.282 µM (≈ 0.17 µg/mL)
C=C(C)[C@@H]1CC[C@]2(COC(=O)c3ccccc3C(=O)O)CC[C@]3(C)[C@H](CC[C@@H]4[C@@]5(C)CC[C@H](OC(=O)c6ccccc6C(=O)O)C(C)(C)[C@@H]5CC[C@]43C)[C@@H]12 [Betulin 3,28-diphthalate, Betulin-3,28-diphthalate] |  |  |  | 0 |  |  | 10.0 | active against at least one strain of bacteria | 0 | sensitivity of S. aureus (Staphylococcus aureus; Example 34, 10 mg/ml in DMSO): sensitive; Active against (Staphylococcus aureus): S. aureus; effectiveness against S. aureus (Staphylococcus aureus): effective; minimum inhibitory concentration (S. aureus): 2.3 µM (≈ 1.7 µg/mL)
C=C(C)[C@@H]1CCC2(CO)CC[C@@]3(C)C(CCC4[C@@]5(C)C=C(O)C(=O)C(C)(C)C5CC[C@]43C)C12 (stereo partly drawn) [Betulon-1,2-ene-ol, betulon-1-ene-2-ol] | 0 | 0 | 0 |  |  |  |  |  |  | melting point: 167 to 170 °C (dec.)
